According to patent US11413295B2, “Oral preparation of obeticholic acid” (Intercept Pharmaceuticals, Inc., priority 2016, dated 2022):
In brackets after ≈: the same amount, converted by molar mass. Where two headings read alike, the source gives them in different places.

Tests used:
[1] = Obeticholic acid solubility in various test solutions; assay type: physicochemical; conditions: read-out: Dissolved concentration
[2] = Chemical stability: obeticholic acid dimer production by HPLC (Test Example 3); assay type: physicochemical
Method: The following assessments were carried out to see whether, in cases where the amorphous form of obeticholic acid was used, there were any changes in chemical stability even after wet granulation. Specifically, measurements were taken of the amounts in which obeticholic acid dimers were produced (referred to in Patent Document 2 as “Impurity 6,” “3α (3α, 7α-dihydroxy-6α-ethyl-5β-cholan-24-oyloxy)-7α-hydroxy-6α-ethyl-5β-cholan-24-oic acid,” and “6ECDCA dimer”), which were confirmed to have a high propensity to increase in the preparation process and stability tests among known related substances of obeticholic acid disclosed in Patent Document 2, for example.
Test tubes containing the obeticholic acid prepared in Example 19 and the obeticholic acid 20 mg FC tablets of Example 4 were stored under the following conditions. The amounts in which obeticholic acid dimer was produced before (initial) and after storage were measured in accordance with Test Example 3. […]
4 weeks at 60° C. (closed)
Acetonitrile/water (9/1) was added in an amount of exactly 10 mL to test tubes that had been retrieved from storage, and the contents were ultrasonically treated to extract the obeticholic acid. Following centrifugation (10 min at 3000 rpm), the supernatant was made into samples for HPLC assay (500 μg/mL obeticholic acid).
One tablet containing 20 mg obeticholic acid (per tablet) that had been retrieved from storage was introduced into a 40 mL graduated measuring flask. Acetonitrile/water (9/1) was added to the graduated measuring flask, the contents were ultrasonically treated (10 min), and it was confirmed that the tablet had disintegrated. The contents were thoroughly shaken (60 min at 300 rpm) using a shaker, and were again ultrasonically treated to extract the obeticholic acid. Acetonitrile/water (9/1) were added to a constant volume, followed by centrifugation (10 min at 3000 rpm), and the supernatant was made into samples for HPLC assay (500 μg/mL).
50 mg of obeticholic acid was weighed out into a 100 mL graduated measuring flask and dissolved using acetonitrile/water (9/1) (500 μg/mL). The resulting solution was diluted with acetonitrile/water (9/1) to prepare 15.0 μg/mL (3.0%), 5.0 μg/mL (1.0%), and 0.25 μg/mL (0.05%) standard solutions.
The above three standard solutions were used to produce a calibration curve, and the obeticholic acid dimer contained in the sample solutions was quantified. The conditions of analysis are shown below.
Detector: Charged particle detector
Column: by Sigma-Aldrich, SUPELCO Discovery C8 (particle size: 5 μm; internal
Mobile phase: Acetonitrile/methanol/acetic acid aqueous solution (pH 3.0) mixture (8/1/1)

solubility ([1]; JP1, pH 1.2, simulated gastric fluid): 0.00407 mg/mL (≈ 9.68 µM)
solubility ([1]; JP2, pH 6.8, aqueous buffer): 0.306 mg/mL (≈ 729 µM)
solubility ([1]; aqueous buffer, pH 3.0 McIlvaine buffer): 0.00443 mg/mL (≈ 10.5 µM)
solubility ([1]; aqueous buffer, pH 4.0 McIlvaine buffer): 0.00466 mg/mL (≈ 11.1 µM)
solubility ([1]; aqueous buffer, pH 5.0 McIlvaine buffer): 0.0114 mg/mL (≈ 27.1 µM)
solubility ([1]; aqueous buffer, pH 6.0 McIlvaine buffer): 0.0607 mg/mL (≈ 144 µM)
solubility ([1]; water): 0.0215 mg/mL (≈ 51 µM)
Amount of obeticholic acid dimer production ([2]; 50° C., 85% RH open 4 W): 0.83%
Increase in obeticholic acid dimer from initial product ([2]; 50° C., 85% RH open 4 W): 0.79%
Amount of obeticholic acid dimer production ([2]; 60° C. closed 4 W): 0.81%
Increase in obeticholic acid dimer from initial product ([2]; 60° C. closed 4 W): 0.77%
Amount of obeticholic acid dimer production ([2]; Initial): 0.04%
SMILES: CC[C@H]1[C@@H](O)[C@@H]2[C@H](CC[C@]3(C)[C@@H]([C@H](C)CCC(=O)O)CC[C@@H]23)[C@@]2(C)CC[C@@H](O)C[C@@H]12 [Obeticholic acid, 6α-ethyl-3α, 7 α-dihydroxy-5β-cholan-24-oic acid]
